Broadly, the IC50 is the point on the concentration scale where inhibition reaches its midpoint.

This assay concerns the target T1, active p38 alpha enzyme (Upstate Biotechnology) (Homo sapiens, UniProt Q16539).
T1 construct: purchased Upstate Biotechnology
Put plainly: p38α biochemical assay (ATP turnover, luminescent detection, Cambrex PKlight). The settings on record: p38α kinase; Table 1 Biological Activity. The method, boiled down: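 Measures total ATP turnover by luminescence after human p38α phosphorylates full MapkapK2 protein. Final ATP is 1.4 uM, and incubation runs 2 hours at 30C. The buffer includes 100 mM MgCl2, 4 mM CaCl2 and 1 mg/ml BSA.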

T1 sequence (Q16539 whole entry): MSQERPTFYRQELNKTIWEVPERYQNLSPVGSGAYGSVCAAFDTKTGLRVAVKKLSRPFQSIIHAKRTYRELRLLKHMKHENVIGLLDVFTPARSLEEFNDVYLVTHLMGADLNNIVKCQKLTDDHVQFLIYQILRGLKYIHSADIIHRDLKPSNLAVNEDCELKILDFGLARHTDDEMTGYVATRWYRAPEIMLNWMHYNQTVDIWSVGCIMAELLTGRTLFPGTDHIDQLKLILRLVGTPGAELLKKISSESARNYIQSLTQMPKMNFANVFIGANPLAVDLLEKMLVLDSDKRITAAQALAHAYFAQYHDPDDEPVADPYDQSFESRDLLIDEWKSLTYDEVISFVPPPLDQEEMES

Regarding `CCN(C(=O)c1csc(-c2sc(C)nc2-c2ccc(F)cc2)n1)C(C)C` [Example 1843], the IC50 was over 1000 nM.
The molecule `CCCCN(C)C(=O)c1csc(-c2sc(C)nc2-c2ccc(F)cc2)n1` [Example 1844] yielded a half-inhibitory concentration (IC50) of over 1000 nM.
For `CCN(CCO)C(=O)c1csc(-c2sc(C)nc2-c2ccc(F)cc2)n1` [Example 1845] the value was over 1000 nM.
Turning to `Cc1nc(-c2ccc(F)cc2)c(-c2nc(C(=O)N3CCSC3)cs2)s1` [Example 1846], the half-inhibitory concentration (IC50) was over 1000 nM.
`Cc1nc(-c2ccc(F)cc2)c(-c2nc(C(=O)N3CCCCC3C)cs2)s1` (centres unmarked) [Example 1847] had an IC50 of over 1000 nM.
For `Cc1nc(-c2ccc(F)cc2)c(-c2nc(C(=O)N3CCC(C)CC3)cs2)s1` [Example 1848] the value was over 1000 nM; for `Cc1nc(-c2ccc(F)cc2)c(-c2nc(C(=O)N3CCN(C)CC3)cs2)s1` [Example 1849], over 1000 nM; for `Cc1nc(-c2ccc(F)cc2)c(-c2nc(C(=O)N3CCCC3CO)cs2)s1` (centres unmarked) [Example 1850], at most 1000 nM.
Next, `Cc1nc(-c2ccc(F)cc2)c(-c2nc(C(=O)N3CCC[C@@H]3CO)cs2)s1` [Example 1851]: over 1000 nM; `CCCCN(CC)C(=O)c1csc(-c2sc(C)nc2-c2ccc(F)cc2)n1` [Example 1852]: over 1000 nM.
As to `CCCN(CCC)C(=O)c1csc(-c2sc(C)nc2-c2ccc(F)cc2)n1` [Example 1853], the 50% inhibitory concentration (IC50) is over 1000 nM.
In turn, `Cc1nc(-c2ccc(F)cc2)c(-c2nc(C(=O)N3CCSCC3)cs2)s1` [Example 1854] gave an IC50 of over 1000 nM.
Take `Cc1nc(-c2ccc(F)cc2)c(-c2nc(C(=O)N(CCO)CCO)cs2)s1` [Example 1855]: the IC50 was over 1000 nM.
Next, `Cc1nc(-c2ccc(F)cc2)c(-c2nc(C(=O)N3CC(C)CC(C)C3)cs2)s1` (centres unmarked) [Example 1856]: over 1000 nM.
For `Cc1nc(-c2ccc(F)cc2)c(-c2nc(C(=O)N(C)C3CCCCC3)cs2)s1` [Example 1857], the IC50 is over 1000 nM.
Consider `Cc1nc(-c2ccc(F)cc2)c(-c2nc(C(=O)N3C(C)CCCC3C)cs2)s1` (centres unmarked) [Example 1858], for which the half-inhibitory concentration (IC50) is over 1000 nM.
For `Cc1nc(-c2ccc(F)cc2)c(-c2nc(C(=O)N3CCC(N(C)C)C3)cs2)s1` (centres unmarked) [Example 1859] the value was over 1000 nM; for `Cc1nc(-c2ccc(F)cc2)c(-c2nc(C(=O)N3CC(C)NC(C)C3)cs2)s1` (centres unmarked) [Example 1860], over 1000 nM; for `Cc1nc(-c2ccc(F)cc2)c(-c2nc(C(=O)N3CCCC(CO)C3)cs2)s1` (centres unmarked) [Example 1861], over 1000 nM.
Regarding `COC[C@@H]1CCCN1C(=O)c1csc(-c2sc(C)nc2-c2ccc(F)cc2)n1` [Example 1862], the IC50 was at most 1000 nM.
Next, `Cc1nc(-c2ccc(F)cc2)c(-c2nc(C(=O)N3CC(C)OC(C)C3)cs2)s1` (centres unmarked) [Example 1863]: over 1000 nM.
Turning to `Cc1nc(-c2ccc(F)cc2)c(-c2nc(C(=O)N3CCCCC3CO)cs2)s1` (centres unmarked) [Example 1864], the half-inhibitory concentration (IC50) is over 1000 nM.
`CCN(CCCCO)C(=O)c1csc(-c2sc(C)nc2-c2ccc(F)cc2)n1` [Example 1865] returned an IC50 of over 1000 nM.
The molecule `Cc1nc(-c2ccc(F)cc2)c(-c2nc(C(=O)N3Cc4ccccc4C3)cs2)s1` [Example 1866] came in with an IC50 of over 1000 nM.
Molecule `Cc1nc(-c2ccc(F)cc2)c(-c2nc(C(=O)N(C)Cc3ccccc3)cs2)s1` [Example 1867] came in with an IC50 of over 1000 nM.
In the case of `CCN(C(=O)c1csc(-c2sc(C)nc2-c2ccc(F)cc2)n1)C1CCCCC1` [Example 1868], the IC50 was over 1000 nM.
`Cc1nc(-c2ccc(F)cc2)c(-c2nc(C(=O)N3CCC(C(N)=O)CC3)cs2)s1` [Example 1869]: the 50% inhibitory concentration (IC50) was over 1000 nM.
As to `CC(=O)N[C@H]1CCN(C(=O)c2csc(-c3sc(C)nc3-c3ccc(F)cc3)n2)C1` [Example 1870], the half-maximal inhibitory concentration (IC50) is over 1000 nM.
`Cc1nc(-c2ccc(F)cc2)c(-c2nc(C(=O)N3CCCC(C(N)=O)C3)cs2)s1` (centres unmarked) [Example 1872] came in with a concentration for half-maximal inhibition (IC50) of over 1000 nM.
Take `Cc1nc(-c2ccc(F)cc2)c(-c2nc(C(=O)N3CCCCC3CCO)cs2)s1` (centres unmarked) [Example 1873]: the IC50 was over 1000 nM.
Next, `Cc1nc(-c2ccc(F)cc2)c(-c2nc(C(=O)N3CCc4ccccc4C3)cs2)s1` [Example 1874]: over 1000 nM; `CCN(Cc1ccccc1)C(=O)c1csc(-c2sc(C)nc2-c2ccc(F)cc2)n1` [Example 1875]: over 1000 nM; `Cc1nc(-c2ccc(F)cc2)c(-c2nc(C(=O)N(C)CCc3ccccc3)cs2)s1` [Example 1877]: over 1000 nM.
With `Cc1nc(-c2ccc(F)cc2)c(-c2nc(C(=O)N(C)CCc3ccccn3)cs2)s1` [Example 1878], the IC50 was over 1000 nM.
On to `Cc1nc(-c2ccc(F)cc2)c(-c2nc(C(=O)N3CCCC4CCCCC43)cs2)s1` (centres unmarked) [Example 1880], for which the IC50 is at most 1000 nM.
`C=CCN(C(=O)c1csc(-c2sc(C)nc2-c2ccc(F)cc2)n1)C1CCCCC1` [Example 1881] gave an IC50 of over 1000 nM.
Regarding `COC(=O)C1CCN(C(=O)c2csc(-c3sc(C)nc3-c3ccc(F)cc3)n2)CC1` [Example 1882], the IC50 was over 1000 nM.
On to `Cc1nc(-c2ccc(F)cc2)c(-c2nc(C(=O)N(Cc3ccccc3)C(C)C)cs2)s1` [Example 1883], for which the IC50 was over 1000 nM.
With `Cc1nc(-c2ccc(F)cc2)c(-c2nc(C(=O)N(CCO)Cc3ccccc3)cs2)s1` [Example 1884], the IC50 is over 1000 nM.
The molecule `Cc1nc(-c2ccc(F)cc2)c(-c2nc(C(=O)N(C)CC(O)c3ccccc3)cs2)s1` (centres unmarked) [Example 1885] had an IC50 of over 1000 nM.
`Cc1nc(-c2ccc(F)cc2)c(-c2nc(C(=O)N3CCC(O)(O)CC3)cs2)s1` [Example 1886] showed a half-maximal inhibitory concentration (IC50) of over 1000 nM.
Turning to `CCOC(=O)C1CCN(C(=O)c2csc(-c3sc(C)nc3-c3ccc(F)cc3)n2)CC1` [Example 1887], the IC50 was over 1000 nM.
Next, `CCOC(=O)C1CCCN(C(=O)c2csc(-c3sc(C)nc3-c3ccc(F)cc3)n2)C1` (centres unmarked) [Example 1888]: over 1000 nM; `CCOC(=O)N1CCN(C(=O)c2csc(-c3sc(C)nc3-c3ccc(F)cc3)n2)CC1` [Example 1889]: over 1000 nM.
Consider `Cc1nc(-c2ccc(F)cc2)c(-c2nc(C(=O)N(CCC#N)Cc3cccnc3)cs2)s1` [Example 1891], for which the IC50 was over 1000 nM.
With `Cc1nc(-c2ccc(F)cc2)c(-c2nc(C(=O)N3CCN(c4ccccc4)CC3)cs2)s1` [Example 1892], the IC50 is over 1000 nM.
In turn, `Cc1nc(-c2ccc(F)cc2)c(-c2nc(C(=O)N3CCN(c4ccccn4)CC3)cs2)s1` [Example 1893] gave a concentration for half-maximal inhibition (IC50) of over 1000 nM.
As for `CCCCN(Cc1ccccc1)C(=O)c1csc(-c2sc(C)nc2-c2ccc(F)cc2)n1` [Example 1894], the IC50 was over 1000 nM.
`Cc1nc(-c2ccc(F)cc2)c(-c2nc(C(=O)N(CCO)[C@H](C)c3ccccc3)cs2)s1` [Example 1895] displayed an IC50 of over 1000 nM.
On to `Cc1nc(-c2ccc(F)cc2)c(-c2nc(C(=O)N(CCCO)Cc3ccccn3)cs2)s1` [Example 1896], for which the IC50 is over 1000 nM.
`Cc1nc(-c2ccc(F)cc2)c(-c2nc(C(=O)N(C)CC(O)c3ccc(O)cc3)cs2)s1` (centres unmarked) [Example 1897] registered a half-maximal inhibitory concentration (IC50) of over 1000 nM.
As for `Cc1nc(-c2ccc(F)cc2)c(-c2nc(C(=O)N3CCN(C4CCCCC4)CC3)cs2)s1` [Example 1898], the IC50 is over 1000 nM.
Regarding `Cc1nc(-c2ccc(F)cc2)c(-c2nc(C(=O)N3CCC(Cc4ccccc4)CC3)cs2)s1` [Example 1899], the IC50 was over 1000 nM.

The values are drawn from US20060252807A1, “Novel ortho-terphenyl inhibitors of p38 kinase and methods of treating inflammatory disorders” (Kalypsys, Inc., priority 2005, published 2006).
